Reference: the supplement of paper PMC10307832

Tests used:
Test in all cases: relative viability (nuclei count vs DMSO), 5 days (fraction); higher = more cells survive
BX 795 + Navitoclax = compound: O=C(NCCCNc1nc(Nc2cccc(NC(=O)N3CCCC3)c2)ncc1I)c1cccs1 [BX 795] + CC1(C)CCC(c2ccc(Cl)cc2)=C(CN2CCN(c3ccc(C(=O)NS(=O)(=O)c4ccc(N[C@H](CCN5CCOCC5)CSc5ccccc5)c(S(=O)(=O)C(F)(F)F)c4)cc3)CC2)C1 [Navitoclax] (partner 0.5 µM)
Method in brief: (§1)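 After 5 days of treatment, lung cancer cells in 1536-well plates were fixed and stained in a single step (final 0.05% Triton X-100, 1% formaldehyde, 1 ug/ml Hoechst) and their nuclei counted on 4× images. Treatment had been applied by pin tool the day after seeding as one drug alone or as a fixed anchor-drug dose with five library-drug doses (not always all listed) in √10 steps. Relative viability is the nuclei count of treated wells divided by that of vehicle wells, and values are medians of duplicate plates.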

BX 795 + Pictilisib = compound: O=C(NCCCNc1nc(Nc2cccc(NC(=O)N3CCCC3)c2)ncc1I)c1cccs1 [BX 795] + CS(=O)(=O)N1CCN(Cc2cc3nc(-c4cccc5[nH]ncc45)nc(N4CCOCC4)c3s2)CC1 [Pictilisib] (partner 1 µM)
Method in brief: as §1

BX 795 + Crizotinib = compound: O=C(NCCCNc1nc(Nc2cccc(NC(=O)N3CCCC3)c2)ncc1I)c1cccs1 [BX 795] + C[C@@H](Oc1cc(-c2cnn(C3CCNCC3)c2)cnc1N)c1c(Cl)ccc(F)c1Cl [Crizotinib] (partner 1 µM)
Method in brief: as §1

BX 795 + Decitabine = compound: O=C(NCCCNc1nc(Nc2cccc(NC(=O)N3CCCC3)c2)ncc1I)c1cccs1 [BX 795] + Nc1ncn([C@H]2C[C@H](O)[C@@H](CO)O2)c(=O)n1 [Decitabine] (partner 2 µM)
Method in brief: as §1

BX 795 + Bortezomib = compound: O=C(NCCCNc1nc(Nc2cccc(NC(=O)N3CCCC3)c2)ncc1I)c1cccs1 [BX 795] + CC(C)C[C@H](NC(=O)[C@H](Cc1ccccc1)NC(=O)c1cnccn1)B(O)O [Bortezomib] (partner 0.002 µM)
Method in brief: as §1

Cell Line: NCI-H1944
- relative viability (BX 795 + Navitoclax; first compound 0.04 µM): 1.14
- relative viability (BX 795 + Navitoclax; first compound 0.1265 µM): 1.11
- relative viability (BX 795 + Navitoclax; first compound 0.4 µM): 1.07
- relative viability (BX 795 + Navitoclax; first compound 1.265 µM): 0.953
- relative viability (BX 795 + Pictilisib; first compound 0.04 µM): 0.376
- relative viability (BX 795 + Pictilisib; first compound 0.1265 µM): 0.329
- relative viability (BX 795 + Pictilisib; first compound 0.4 µM): 0.367
- relative viability (BX 795 + Pictilisib; first compound 1.265 µM): 0.363
- relative viability (BX 795 + Crizotinib; first compound 0.04 µM): 1.18
- relative viability (BX 795 + Crizotinib; first compound 0.1265 µM): 1.03
- relative viability (BX 795 + Crizotinib; first compound 0.4 µM): 1.09
- relative viability (BX 795 + Crizotinib; first compound 1.265 µM): 0.741
- relative viability (BX 795 + Decitabine; first compound 0.04 µM): 0.471
- relative viability (BX 795 + Decitabine; first compound 0.1265 µM): 0.497
- relative viability (BX 795 + Decitabine; first compound 0.4 µM): 0.534
- relative viability (BX 795 + Decitabine; first compound 1.265 µM): 0.408

Cell Line: NCI-H2228
- relative viability (BX 795 + Bortezomib; first compound 0.04 µM): 1.03
- relative viability (BX 795 + Bortezomib; first compound 0.1265 µM): 1.11
- relative viability (BX 795 + Bortezomib; first compound 0.4 µM): 0.907
- relative viability (BX 795 + Bortezomib; first compound 1.265 µM): 0.308
- relative viability (BX 795 + Navitoclax; first compound 0.04 µM): 0.894
- relative viability (BX 795 + Navitoclax; first compound 0.1265 µM): 0.811
- relative viability (BX 795 + Navitoclax; first compound 0.4 µM): 0.857
- relative viability (BX 795 + Navitoclax; first compound 1.265 µM): 0.486
- relative viability (BX 795 + Pictilisib; first compound 0.04 µM): 0.517
- relative viability (BX 795 + Pictilisib; first compound 0.1265 µM): 0.439
- relative viability (BX 795 + Pictilisib; first compound 0.4 µM): 0.377
- relative viability (BX 795 + Pictilisib; first compound 1.265 µM): 0.239
- relative viability (BX 795 + Crizotinib; first compound 0.04 µM): 0.635
- relative viability (BX 795 + Crizotinib; first compound 0.1265 µM): 0.5
- relative viability (BX 795 + Crizotinib; first compound 0.4 µM): 0.572
- relative viability (BX 795 + Crizotinib; first compound 1.265 µM): 0.288

Cell Line: ABC-1
- relative viability (BX 795 + Bortezomib; first compound 0.04 µM): 0.392
- relative viability (BX 795 + Bortezomib; first compound 0.1265 µM): 0.299
- relative viability (BX 795 + Bortezomib; first compound 0.4 µM): 0.332
- relative viability (BX 795 + Bortezomib; first compound 1.265 µM): 0.291
- relative viability (BX 795 + Pictilisib; first compound 0.04 µM): 0.507
- relative viability (BX 795 + Pictilisib; first compound 0.1265 µM): 0.555
- relative viability (BX 795 + Pictilisib; first compound 0.4 µM): 0.634
- relative viability (BX 795 + Pictilisib; first compound 1.265 µM): 0.661
- relative viability (BX 795 + Crizotinib; first compound 0.04 µM): 1.2
- relative viability (BX 795 + Crizotinib; first compound 0.1265 µM): 1.23
- relative viability (BX 795 + Crizotinib; first compound 0.4 µM): 1.03
- relative viability (BX 795 + Crizotinib; first compound 1.265 µM): 0.3
- relative viability (BX 795 + Decitabine; first compound 0.04 µM): 1.03
- relative viability (BX 795 + Decitabine; first compound 0.4 µM): 1.3
- relative viability (BX 795 + Decitabine; first compound 1.265 µM): 1.49

Cell Line: LCLC-103H
- relative viability (BX 795 + Bortezomib; first compound 0.04 µM): 1
- relative viability (BX 795 + Bortezomib; first compound 0.1265 µM): 1.1
- relative viability (BX 795 + Bortezomib; first compound 0.4 µM): 1.15
- relative viability (BX 795 + Bortezomib; first compound 1.265 µM): 0.911
- relative viability (BX 795 + Pictilisib; first compound 0.04 µM): 0.577
- relative viability (BX 795 + Pictilisib; first compound 0.1265 µM): 0.674
- relative viability (BX 795 + Pictilisib; first compound 0.4 µM): 0.596
- relative viability (BX 795 + Pictilisib; first compound 1.265 µM): 0.643
- relative viability (BX 795 + Crizotinib; first compound 0.04 µM): 0.979
- relative viability (BX 795 + Crizotinib; first compound 0.1265 µM): 1.1
- relative viability (BX 795 + Crizotinib; first compound 0.4 µM): 1.01
- relative viability (BX 795 + Crizotinib; first compound 1.265 µM): 1.04
- relative viability (BX 795 + Decitabine; first compound 0.04 µM): 0.714
- relative viability (BX 795 + Decitabine; first compound 0.1265 µM): 0.656
- relative viability (BX 795 + Decitabine; first compound 0.4 µM): 0.863
- relative viability (BX 795 + Decitabine; first compound 1.265 µM): 0.631

Cell Line: NCI-H2170
- relative viability (BX 795 + Navitoclax; first compound 0.04 µM): 0.674
- relative viability (BX 795 + Navitoclax; first compound 0.1265 µM): 0.62
- relative viability (BX 795 + Navitoclax; first compound 0.4 µM): 0.659
- relative viability (BX 795 + Navitoclax; first compound 1.265 µM): 0.53
- relative viability (BX 795 + Pictilisib; first compound 0.04 µM): 0.3
- relative viability (BX 795 + Pictilisib; first compound 0.1265 µM): 0.283
- relative viability (BX 795 + Pictilisib; first compound 0.4 µM): 0.283
- relative viability (BX 795 + Pictilisib; first compound 1.265 µM): 0.249
- relative viability (BX 795 + Crizotinib; first compound 0.04 µM): 1.17
- relative viability (BX 795 + Crizotinib; first compound 0.1265 µM): 1.27
- relative viability (BX 795 + Crizotinib; first compound 0.4 µM): 1.07
- relative viability (BX 795 + Crizotinib; first compound 1.265 µM): 1.13
- relative viability (BX 795 + Decitabine; first compound 0.04 µM): 0.542
- relative viability (BX 795 + Decitabine; first compound 0.1265 µM): 0.47
- relative viability (BX 795 + Decitabine; first compound 0.4 µM): 0.48
- relative viability (BX 795 + Decitabine; first compound 1.265 µM): 0.443

Cell Line: NCI-H2342
- relative viability (BX 795 + Decitabine; first compound 0.04 µM): 0.87
- relative viability (BX 795 + Decitabine; first compound 0.1265 µM): 0.686
- relative viability (BX 795 + Decitabine; first compound 0.4 µM): 0.823
- relative viability (BX 795 + Decitabine; first compound 1.265 µM): 0.641

Cell Line: CAL-12T
- relative viability (BX 795 + Bortezomib; first compound 0.04 µM): 0.954
- relative viability (BX 795 + Bortezomib; first compound 0.1265 µM): 0.929
- relative viability (BX 795 + Bortezomib; first compound 0.4 µM): 1.04
- relative viability (BX 795 + Bortezomib; first compound 1.265 µM): 0.623
- relative viability (BX 795 + Navitoclax; first compound 0.04 µM): 1.08
- relative viability (BX 795 + Navitoclax; first compound 0.1265 µM): 1.23
- relative viability (BX 795 + Navitoclax; first compound 0.4 µM): 1.25
- relative viability (BX 795 + Navitoclax; first compound 1.265 µM): 0.497
- relative viability (BX 795 + Pictilisib; first compound 0.04 µM): 0.543
- relative viability (BX 795 + Pictilisib; first compound 0.1265 µM): 0.452
- relative viability (BX 795 + Pictilisib; first compound 0.4 µM): 0.368
- relative viability (BX 795 + Pictilisib; first compound 1.265 µM): 0.32
- relative viability (BX 795 + Crizotinib; first compound 0.04 µM): 0.562
- relative viability (BX 795 + Crizotinib; first compound 0.1265 µM): 0.426
- relative viability (BX 795 + Crizotinib; first compound 0.4 µM): 0.309
- relative viability (BX 795 + Crizotinib; first compound 1.265 µM): 0.333

Cell Line: SK-MES-1
- relative viability (BX 795 + Navitoclax; first compound 0.04 µM): 1.26
- relative viability (BX 795 + Navitoclax; first compound 0.1265 µM): 1.32
- relative viability (BX 795 + Navitoclax; first compound 0.4 µM): 1.23
- relative viability (BX 795 + Navitoclax; first compound 1.265 µM): 0.886
- relative viability (BX 795 + Pictilisib; first compound 0.04 µM): 0.372
- relative viability (BX 795 + Pictilisib; first compound 0.1265 µM): 0.32
- relative viability (BX 795 + Pictilisib; first compound 0.4 µM): 0.322
- relative viability (BX 795 + Pictilisib; first compound 1.265 µM): 0.382
- relative viability (BX 795 + Crizotinib; first compound 0.04 µM): 1.13
- relative viability (BX 795 + Crizotinib; first compound 0.1265 µM): 0.939
- relative viability (BX 795 + Crizotinib; first compound 0.4 µM): 0.836
- relative viability (BX 795 + Crizotinib; first compound 1.265 µM): 0.78
- relative viability (BX 795 + Decitabine; first compound 0.04 µM): 0.503
- relative viability (BX 795 + Decitabine; first compound 0.1265 µM): 0.358
- relative viability (BX 795 + Decitabine; first compound 0.4 µM): 0.392
- relative viability (BX 795 + Decitabine; first compound 1.265 µM): 0.39

Cell Line: NCI-H650
- relative viability (BX 795 + Bortezomib; first compound 0.04 µM): 0.792
- relative viability (BX 795 + Bortezomib; first compound 0.1265 µM): 0.761
- relative viability (BX 795 + Bortezomib; first compound 0.4 µM): 1.06
- relative viability (BX 795 + Bortezomib; first compound 1.265 µM): 0.432
- relative viability (BX 795 + Pictilisib; first compound 0.04 µM): 0.86
- relative viability (BX 795 + Pictilisib; first compound 0.1265 µM): 0.979
- relative viability (BX 795 + Pictilisib; first compound 0.4 µM): 0.762
- relative viability (BX 795 + Pictilisib; first compound 1.265 µM): 0.623
- relative viability (BX 795 + Crizotinib; first compound 0.04 µM): 0.712
- relative viability (BX 795 + Crizotinib; first compound 0.1265 µM): 0.771
- relative viability (BX 795 + Crizotinib; first compound 0.4 µM): 0.421
- relative viability (BX 795 + Crizotinib; first compound 1.265 µM): 0.619
- relative viability (BX 795 + Decitabine; first compound 0.04 µM): 0.458
- relative viability (BX 795 + Decitabine; first compound 0.1265 µM): 0.299
- relative viability (BX 795 + Decitabine; first compound 0.4 µM): 0.458
- relative viability (BX 795 + Decitabine; first compound 1.265 µM): 0.357
